Data taken from patent US5234822A, “Trypanosoma cruzi heparin-binding protein and antibodies thereto” (priority 1991, dated 1993).

What was measured:
[1] = test system: T. cruzi trypomastigotes adhering to glutaraldehyde-fixed Vero cells; test: Inhibition of trypomastigote binding to Vero cells; assay type: cell-based, Trypanosoma cruzi; settings: trypomastigotes preincubated 30 min at 37° C., binding 60 min
Procedure: In these experiments attachment of trypomastigotes to Vero cell monolayers was measured as follows. Briefly, Vero cells were maintained in RPMI 1640 supplemented with heat-inactivated 1% Nu-serum (Collaborative Research Inc., Bedford, Mass.), penicillin (100 U/ml) and streptomycin ([…]). Unless noted otherwise, cells were maintained in plastic tissue culture flasks (150 cm^2, Bellco, Vineland, N.J.) and incubated at 37° C. in a humidified atmosphere containing 5% CO2 and 95% air. Cells were propagated every 1-2 weeks after trypsin-EDTA digestion (0.5 g trypsin, 0.2 g EDTA in HBSS without Ca^++ and Mg^++) in 16-well Lab-Tek® chamber slide™ (Nunc, Inc., Naperville, Ill.. Prior to binding experiments Vero cells were removed with trypsin and plated on 96-well tissue culture plates (Bellco, Vineland, N.J.) or in 16-well Lab-Tek® chamber slide™ at a density of 7.5×10^3 cells per well. After 24 h, the medium was removed, cells were washed twice with PBS, pH 7.2, and fixed for 5 min at 4° C. by addition of 2% glutaraldehyde (grade I, Sigma Chemical Co., St. Louis, Mo.) in PBS. Cell monolayers were washed twice with PBS, pH 7.2 and incubated overnight at 4° C. in 0.16M ethanolamine, pH 8.3 to block residual free […] amino groups. The next day, cell monolayers were washed three times with PBS as above, and two times with 1% BSA/RPMI-1640 and kept at least 1 h at 37° C. in the same medium.
Trypomastigotes, [^35 S]-labeled as described above, were added to the cell monolayers in a total volume of 100 μl/well and the plates were incubated for 1 h at 37° C. Each well was then washed five times with 100 μl prewarmed PBS (pH 7.2). The [^35 S] label was solubilized with 2M NaOH and the bound radioactivity was determined in a liquid scintillation counter. Alternatively, unlabeled trypomastigotes were added to wells of a 16-well Lab-Tek® chamber slide™ and incubated as above. After removing the plastic chamber, the slide was washed by dipping 5 times in PBS (pH 7.2) and immersed upside-down in 4% paraformaldehyde in PBS, containing 7% sucrose. Finally, the slide was rinsed with PBS, stained with Diff-Quik®and the number of bound T. cruzi were determined by counting under light microscopy. For inhibition studies, trypomastigotes were preincubated 30 min at 37° C. with the appropriate proteoglycan in 100 μl of 1% BSA-RPMI- 1640 before addition to cell monolayers. Binding was determined in triplicate at each inhibitor concentration and in the absence of inhibitor.
In this assay 100% binding was taken to 5 ×10^4 trypomastigotes/well bound in 60 min.

[2] = test system: T. cruzi trypomastigotes infecting Vero cells; test: Inhibition of T. cruzi infection of Vero cells; assay type: cell-based, Trypanosoma cruzi; settings: for effect on infection: FIG. 4, even at high concentrations; for concentration causing 50% reduction of infection: FIG. 4, parasites preincubated 30 min, 2 h interaction, 3 days culture
Procedure: In these experiments, cultured Vero cells were released with trypsin/EDTA, plated at 7.5×10^3 cells/well in 16-well Lab-Tek® chamber slides™ for 24 h, and used for infection at ~75% confluence. Trypomastigotes were harvested, washed with serum-free RPMI containing 1% BSA, and mixed with various concentrations of proteoglycans. After 30 min at 37° C., 5×10^5 parasites in a total volume of 100 μl were added to each well containing subconfluent cultures of Vero cells and allowed to interact for 2 h at 37° C. At the end of the incubation time, cell monolayers were rinsed three times with serum-free medium, and further incubated in RPMI-1640 containing 1% Nu-serum for 3 days at 37° C. Finally, monolayers were washed, stained with Diff-Quik®, and examined under a microscope to estimate the ratio of infected (i.e., Vero cell containing more than one intracellular amastigote) to non-infected Vero cells. In order to establish if the inhibitory effect was due to interaction of heparin and heparan sulfate with trypomastigotes rather than to Vero cells, parasites or host cells were preincubated with the putative inhibitors, washed extensively, and assayed for infection as above.

[3] = test system: T. cruzi penetrin (60 kD trypomastigote heparin-binding protein), column-purified; test: Binding of column-purified [125I]-labeled penetrin to heparin-Sepharose; set-up: species or system Trypanosoma cruzi; settings: compound 100 μg/ml; Bovine Serum Albumin control 1.9
Procedure: To determine if [^125 I]-labeled penetrin was still active in binding extracellular matrix proteins after isolation by heparin affinity chromatography, rebinding and inhibition of rebinding to heparin-Sepharosebeads was performed. Briefly, column purified [^125 I]-labeled penetrin was incubated with or without compounds and mixed with 100 μl of heparin-Sepharose. The mixture was incubated at room temperature for 2 h under slow rocking. The slurry was then centrifuged (500× g, 5 min), washed three times with PBS, and bound radioactivity determined in a gamma counter. Referring to FIG. 7, in the absence of competitors, column-purified [^125 I]-labeled penetrin retained its ability to bind heparin-Sepharose.
For inhibition experiments, an aliquot of the purified heparin-binding protein was mixed with putative inhibitors for 1 h at room temperature, and the mixture added to 100 μl of heparin-Sepharose as above. The amount of [^125 I]-labeled protein retained by the agarose beads was assessed by elution of the protein with 1% SDS, SDS-polyacrylamide gel electrophoresis and autoradiography, and quantitated in a laser scanning densitometer (Pharmacia LKB, Ultroscan XL). One hundred percent binding was taken as the amount of protein retained by the heparin-Sepharose in the absence of added inhibitor. Referring to Table 2, adsorption of penetrin was inhibited by pre-incubation with soluble heparin, heparan sulfate or collagen, but not with other glycosaminoglycans (chondroitin sulfate and hyaluronic acid).

[4] = test system: T. cruzi penetrin (60 kD trypomastigote heparin-binding protein), column-purified; test: Binding of column-purified [125I]-labeled penetrin to fibroblasts (Vero cells); set-up: species or system Trypanosoma cruzi
Procedure: Binding of [^125 I]-labeled penetrin to Vero cells was assayed as follows. Vero cells, grown in multiwell plates to confluence as described above, were rinsed once with 1% BSA-RPMI-1640, and incubated at 37° C. with increasing concentrations of [^125 I]-labeled penetrin. After 1 h the medium was removed, cell monolayers were washed three times with PBS, solubilized with 100 μl of 2M NaOH, and the retained radioactivity measured in a gamma counter. For inhibition experiments, an aliquot of [^125 I]-labeled penetrin was preincubated with the potential inhibitors prior to adding to confluent cells, and processed as above.

[5] = test system: E. coli XL-1 Blue with clone HBP-6 expressing penetrin, entering Vero cells; test: Penetrin-mediated entry of E. coli into Vero cells (gentamicin survival); assay type: cell-based, Escherichia coli; settings: 250 μg/ml; for inhibition of penetration of bacteria: E. coli preincubated with inhibitor; for survival of bacteria after gentamicin: 4.3% without inhibitor
Procedure: E. coli expressing penetrin are able to enter nonphagocytic mammalian cells which normally exclude E. coli. […] Recombinant bacteria were grown overnight at 37°, washed twice in PBS, resuspended at 10^8 cells/ml, and aliquots of 2×10^7 E coli were added to monolayers of 2×10^5 Vero cells per microliter well in 1 ml of RPMI 1640 medium containing 1% BSA. Bacteria were centrifuged onto the cell monolayer, and the cultures were incubated at 37° for 3 h in a 5% CO2 /95% air atmosphere, washed three times with sterile PBS, and incubated for an additional 1.5 h at 37° C. in RPMI 1640 medium containing 1% BSA and 75 μg/ml gentamicin (to kill bacteria bound to outer membrane). The monolayers were then washed three times in sterile PBS, and lysed with 0.5% Triton X-100 in deionized water to release internalized bacteria, which were quantitated in agar plates.

T. cruzi trypomastigotes = test: Trypomastigote binding to heparin- or collagen-coated wells; assay type: cell-based, Trypanosoma cruzi; settings: soluble compound
Procedure: Proteoglycans (dissolved in PBS) and collagen solubilized in 0.1N HCl and neutralized in PBS) were adsorbed onto plastic (Falcon 3912 polyvinylchloride 96-well microliter plates) by incubation overnight at 4° C. (Roberts et al., J. BioI. Chem. 264:9289, 1989). The unbound proteins were removed, the wells filled with 1% heat-treated BSA in PBS (56° C., 60 min and filtered in […] nitrocellulose filters to remove insoluble particles) and incubated for 1 h at room temperature. The wells were then washed twice with PBS (pH 7.2) and rinsed with RPMI 1640 containing 1% BSA. T. cruzi trypomastigotes, labeled with [^35 S] methionine, were resuspended in RPMI-BSA and 100 μl of the suspension was applied to the wells. After various periods of incubation at 37° C., the wells were carefully washed three times with 37° C. PBS (pH 7.2). T. cruzi bound to the plastic-bound proteoglycans were then solubilized with 100 μ l of 2 M NaOH, mixed with Ultrafluor (National Diagnostics, Manville, N.J.), and assayed by liquid scintillation counting. Referring to FIG. 1a, adherence of trypomastigotes to heparin-coated plates increased linearly with the length of incubation up to about 60 min. In a separate experiment trypomastigotes were added for 60 min, but the number added was varied. […] In contrast, non-specific binding to BSA-coated wells was less than 2%.

Substance | % Vero Cells with Trypomastigotes ([1]; inhibitor 250 μg/ml) [%] | effect on infection [2] | Penetrin Bound [3] [cpm × 10^-3] | % Inhibition of penetrin binding to fibroblasts ([4]; compound 250 μg/ml) [%] | effect on E. coli entry (in words) [5] | % Vero Cells with Trypomastigotes ([1]; inhibitor 125 μg/ml) [%] | concentration causing 50% reduction of infection [2] [µg/mL] | inhibition of binding of [125I]-labeled penetrin to Vero cell monolayers (in words) [4] | inhibition of penetration of bacteria [5] [%] | survival of bacteria after gentamicin [5] [%] | inhibition of trypomastigote binding to coated wells (in words) (T. cruzi trypomastigotes) | % Inhibition of penetrin binding to fibroblasts ([4]; compound 5 μg/ml) [%] | % Inhibition of penetrin binding to fibroblasts ([4]; compound 25 μg/ml) [%] | % Inhibition of penetrin binding to fibroblasts ([4]; compound 50 μg/ml) [%] | % Inhibition of penetrin binding to fibroblasts ([4]; compound 100 μg/ml) [%]
Chondroitin Sulfate | 96 | little effect on infection | 1.6 | 12 | without effect | – | – | – | – | – | – | – | – | – | –
Heparan Sulfate | 18 | – | 0.75 | 65 | – | 60 | 1.5 | inhiited | 85 | 0.6 | inhibited | – | – | – | –
Heparin | 12.5 | – | 0.7 | 91 | – | 50 | 100 | inhiited | 85 | 0.6 | inhibited | 25 | 55 | 75 | 89
Hyaluronic Acid | 98 | little effect on infection | 1.8 | – | without effect | – | – | – | – | – | – | – | – | – | –
